Experimental data taken from patent US11878965B2, “Inhibitors of peptidylarginine deiminases” (Gilead Sciences, Inc., priority 2020, dated 2024).

Target: human PAD4 (Homo sapiens (Human), UniProt Q9UM07)
Experiment: In Vitro PAD4 BAEE Biochemical Assay
Settings: human PAD4, BAEE substrate; 5 nM PAD4, 2 mM calcium chloride, 3 mM BAEE; geometric mean of multiple experiments
Summary of the method: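 Recombinant human PAD4 (His-SUMO tag removed, E. coli-expressed), 5 nM, preincubated with compound and 2 mM CaCl2 30 min at 25 °C in MOPS pH 7.6 with DTT; 3 mM BAEE added for 2 h at 25 °C, EDTA stop. Released ammonia detected by o-phthalaldehyde/DTT fluorescence (ex 405, em 535 nm).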

Chain of human PAD4 (Q9UM07 2-663): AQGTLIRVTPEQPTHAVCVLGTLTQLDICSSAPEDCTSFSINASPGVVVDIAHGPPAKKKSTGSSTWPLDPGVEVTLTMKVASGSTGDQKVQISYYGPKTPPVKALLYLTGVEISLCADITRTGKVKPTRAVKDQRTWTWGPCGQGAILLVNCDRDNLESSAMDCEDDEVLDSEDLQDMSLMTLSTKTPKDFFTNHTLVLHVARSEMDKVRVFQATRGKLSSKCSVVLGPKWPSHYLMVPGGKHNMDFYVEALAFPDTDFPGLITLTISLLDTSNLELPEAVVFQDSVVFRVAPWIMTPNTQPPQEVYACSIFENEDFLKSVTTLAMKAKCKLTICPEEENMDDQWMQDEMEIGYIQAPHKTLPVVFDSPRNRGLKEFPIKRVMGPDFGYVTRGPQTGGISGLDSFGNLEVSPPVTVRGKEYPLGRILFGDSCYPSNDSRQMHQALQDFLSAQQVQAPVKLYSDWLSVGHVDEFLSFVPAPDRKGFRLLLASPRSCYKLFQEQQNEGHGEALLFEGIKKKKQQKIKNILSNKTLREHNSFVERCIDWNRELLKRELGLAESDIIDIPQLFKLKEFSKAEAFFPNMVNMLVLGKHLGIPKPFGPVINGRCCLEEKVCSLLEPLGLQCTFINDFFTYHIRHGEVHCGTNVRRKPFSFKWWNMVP

SMILES	IC50
COc1cc(C(=O)N2[C@H]3CC[C@@H]2[C@H](N)C3)cc2nc(-c3cc4ccc([C@@H](C)NC(=O)C(C)(C)OC)cc4n3CC3CC3)n(C)c12 [Example 140, N-((R)-1-(2-(5-((1R,2R,4S)-2-amino-7-azabicyclo[2.2.1]heptane-7-carbonyl)-7-methoxy-1-methyl-1H-benzo[d]imidazol-2-yl)-1-(cyclopropylmethyl)-1H-indol-6-yl)ethyl)-2-methoxy-2-methylpropanamide]	26.1 nM
COc1cc(C(=O)N2[C@H]3CC[C@@H]2[C@H](N)C3)cc2nc(-c3cc4ccc([C@@H](C)NC(=O)C5(OC)CCC5)cc4n3CC3CC3)n(C)c12 [Example 141, N-((R)-1-(2-(5-((1R,2R,4S)-2-amino-7-azabicyclo[2.2.1]heptane-7-carbonyl)-7-methoxy-1-methyl-1H-benzo[d]imidazol-2-yl)-1-(cyclopropylmethyl)-1H-indol-6-yl)ethyl)-1-methoxycyclobutane-1-carboxamide]	63.3 nM
COc1cc(C(=O)N2[C@H]3CC[C@@H]2[C@H](N)C3)cc2nc(-c3cc4ccc([C@@H](C)NC(=O)C5(OC)CC5)cc4n3CC3CC3)n(C)c12 [Example 142, N-((R)-1-(2-(5-((1R,2R,4S)-2-amino-7-azabicyclo[2.2.1]heptane-7-carbonyl)-7-methoxy-1-methyl-1H-benzo[d]imidazol-2-yl)-1-(cyclopropylmethyl)-1H-indol-6-yl)ethyl)-1-methoxycyclopropane-1-carboxamide]	44.5 nM
COc1cc(C(=O)N2CCC[C@@H](N)C2)cc2nc(-c3cc4cc(F)c([C@@H](C)NC(=O)C56CC(F)(C5)C6)cc4n3CC3CC3)n(C)c12 [Example 145, N-((R)-1-(2-(5-((R)-3-aminopiperidine-1-carbonyl)-7-methoxy-1-methyl-1H-benzo[d]imidazol-2-yl)-1-(cyclopropylmethyl)-5-fluoro-1H-indol-6-yl)ethyl)-3-fluorobicyclo[1.1.1]pentane-1-carboxamide]	62.8 nM
COc1cc(C(=O)N2[C@H]3CC[C@@H]2[C@H](N)C3)cc2nc(-c3cc4cc(F)c(CCNC(=O)C56CC(F)(C5)C6)cc4n3CC3CC3)n(C)c12 [Example 146, N-((R)-2-(2-(5-((1R,2R,4S)-2-amino-7-azabicyclo[2.2.1]heptane-7-carbonyl)-7-methoxy-1-methyl-1H-benzo[d]imidazol-2-yl)-1-(cyclopropylmethyl)-5-fluoro-1H-indol-6-yl)ethyl)-3-fluorobicyclo[1.1.1]pentane-1-carboxamide]	45.8 nM
COc1cc(C(=O)N2[C@H]3CC[C@@H]2[C@H](N)C3)cc2nc(-c3cc4ccc([C@@H](C)NC(=O)C5(OC)CC5)cc4n3CC3CC3)n(C3CC3)c12 [Example 147, N-((R)-1-(2-(5-((1R,2R,4S)-2-amino-7-azabicyclo[2.2.1]heptane-7-carbonyl)-1-cyclopropyl-7-methoxy-1H-benzo[d]imidazol-2-yl)-1-(cyclopropylmethyl)-1H-indol-6-yl)ethyl)-1-methoxycyclopropane-1-carboxamide]	78.9 nM
COc1cc(C(=O)N2[C@H]3CC[C@@H]2[C@H](N)C3)cc2nc(-c3cc4ccc([C@@H](C)NC(=O)c5c(F)cccc5F)cc4n3CC3CC3)n(C3CC3)c12 [Example 148, N-((R)-1-(2-(5-((1R,2R,4S)-2-amino-7-azabicyclo[2.2.1]heptane-7-carbonyl)-1-cyclopropyl-7-methoxy-1H-benzo[d]imidazol-2-yl)-1-(cyclopropylmethyl)-1H-indol-6-yl)ethyl)-2,6-difluorobenzamide]	123 nM
COc1cccc(F)c1C(=O)N[C@H](C)c1ccc2cc(-c3nc4cc(C(=O)N5[C@H]6CC[C@@H]5[C@H](N)C6)cc(OC)c4n3C3CC3)n(CC3CC3)c2c1 [Example 149, N-((R)-1-(2-(5-((1R,2R,4S)-2-amino-7-azabicyclo[2.2.1]heptane-7-carbonyl)-1-cyclopropyl-7-methoxy-1H-benzo[d]imidazol-2-yl)-1-(cyclopropylmethyl)-1H-indol-6-yl)ethyl)-2-fluoro-6-methoxybenzamide]	95.4 nM
COc1cc(C(=O)N2[C@H]3CC[C@@H]2[C@H](N)C3)cc2nc(-c3cc4ccc([C@@H](C)NC(=O)C5CC5(F)F)cc4n3CC3CC3)n(C3CC3)c12 (stereo partly drawn) [Example 152, N-((R)-1-(2-(5-((1R,2R,4S)-2-amino-7-azabicyclo[2.2.1]heptane-7-carbonyl)-1-cyclopropyl-7-methoxy-1H-benzo[d]imidazol-2-yl)-1-(cyclopropylmethyl)-1H-indol-6-yl)ethyl)-2,2-difluorocyclopropane-1-carboxamide]	63 nM

Second part, the molecule after the results:

IC50	SMILES
502 nM	COc1cc(C(=O)N2CCC[C@@H](N)C2)cc2nc(-c3cc4ccc([C@@H](C)NC(=O)C56CC(F)(C5)C6)c(F)c4n3CC3CC3)n(C)c12 [Example 143, N-((R)-1-(2-(5-((R)-3-aminopiperidine-1-carbonyl)-7-methoxy-1-methyl-1H-benzo[d]imidazol-2-yl)-1-(cyclopropylmethyl)-7-fluoro-1H-indol-6-yl)ethyl)-3-fluorobicyclo[1.1.1]pentane-1-carboxamide]
116 nM	COc1cc(C(=O)N2CCC[C@@H](N)C2)cc2nc(-c3cc4cc(F)c([C@@H](C)NC(=O)c5cnn(C)c5)cc4n3CC3CC3)n(C)c12 [Example 150, N-((R)-1-(2-(5-((R)-3-aminopiperidine-1-carbonyl)-7-methoxy-1-methyl-1H-benzo[d]imidazol-2-yl)-1-(cyclopropylmethyl)-5-fluoro-1H-indol-6-yl)ethyl)-1-methyl-1H-pyrazole-4-carboxamide]
102 nM	COc1cc(C(=O)N2CCC[C@@H](N)C2)cc2nc(-c3cc4cc(F)c([C@@H](C)NC(=O)c5cnn(C(F)F)c5)cc4n3CC3CC3)n(C)c12 [Example 151, N-((R)-1-(2-(5-((R)-3-aminopiperidine-1-carbonyl)-7-methoxy-1-methyl-1H-benzo[d]imidazol-2-yl)-1-(cyclopropylmethyl)-5-fluoro-1H-indol-6-yl)ethyl)-1-(difluoromethyl)-1H-pyrazole-4-carboxamide]
102 nM	COc1cc(C(=O)N2CCC[C@@H](N)C2)cc2nc(-c3cc4ccc([C@@H](C)NC(=O)C5CC5(F)F)cc4n3CC3CC3)n(C3CC3)c12 (stereo partly drawn) [Example 153, N-((R)-1-(2-(5-((R)-3-aminopiperidine-1-carbonyl)-1-cyclopropyl-7-methoxy-1H-benzo[d]imidazol-2-yl)-1-(cyclopropylmethyl)-1H-indol-6-yl)ethyl)-2,2-difluorocyclopropane-1-carboxamide]
89.7 nM	COc1cc(C(=O)N2C[C@H](N)CCN2C)cc2nc(-c3cc4ccc([C@@H](C)NC(=O)c5ccccc5)nc4n3CC3CC3)n(C)c12 [Example 154, N-((R)-1-(2-(5-((R)-5-amino-2-methylhexahydropyridazine-1-carbonyl)-7-methoxy-1-methyl-1H-benzo[d]imidazol-2-yl)-1-(cyclopropylmethyl)-1H-pyrrolo[2,3-b]pyridin-6-yl)ethyl)benzamide]
165 nM	COc1cc(C(=O)N2C[C@H](N)CCN2C)cc2nc(-c3cc4ccc([C@@H](C)NC(=O)c5ccc(F)cc5)nc4n3CC3CC3)n(C)c12 [Example 155, N-((R)-1-(2-(5-((R)-5-amino-2-methylhexahydropyridazine-1-carbonyl)-7-methoxy-1-methyl-1H-benzo[d]imidazol-2-yl)-1-(cyclopropylmethyl)-1H-pyrrolo[2,3-b]pyridin-6-yl)ethyl)-4-fluorobenzamide]
166 nM	COc1cc(C(=O)N2C[C@H](N)CCN2C)cc2nc(-c3cc4ccc([C@@H](C)NC(=O)c5cc(F)cc(F)c5)nc4n3CC3CC3)n(C)c12 [Example 156, N-((R)-1-(2-(5-((R)-5-amino-2-methylhexahydropyridazine-1-carbonyl)-7-methoxy-1-methyl-1H-benzo[d]imidazol-2-yl)-1-(cyclopropylmethyl)-1H-pyrrolo[2,3-b]pyridin-6-yl)ethyl)-3,5-difluorobenzamide]
87.4 nM	COc1cc(C(=O)N2C[C@H](N)CCN2C)cc2nc(-c3cc4ccc([C@@H](C)NC(=O)c5c(F)cc(F)cc5F)nc4n3CC3CC3)n(C)c12 [Example 157, N-((R)-1-(2-(5-((R)-5-amino-2-methylhexahydropyridazine-1-carbonyl)-7-methoxy-1-methyl-1H-benzo[d]imidazol-2-yl)-1-(cyclopropylmethyl)-1H-pyrrolo[2,3-b]pyridin-6-yl)ethyl)-2,4,6-trifluorobenzamide]
76.2 nM	COc1cc(C(=O)N2C[C@H](N)CCN2C)cc2nc(-c3cc4ccc([C@@H](C)NC(=O)Cc5ccccc5)nc4n3CC3CC3)n(C)c12 [Example 158, N-((R)-1-(2-(5-((R)-5-amino-2-methylhexahydropyridazine-1-carbonyl)-7-methoxy-1-methyl-1H-benzo[d]imidazol-2-yl)-1-(cyclopropylmethyl)-1H-pyrrolo[2,3-b]pyridin-6-yl)ethyl)-2-phenylacetamide]
229 nM	COc1cc(C(=O)N2C[C@H](N)CCN2C)cc2nc(-c3cc4ccc([C@@H](C)NC(=O)C(C)(C)c5ccccc5)nc4n3CC3CC3)n(C)c12 [Example 159, N-((R)-1-(2-(5-((R)-5-amino-2-methylhexahydropyridazine-1-carbonyl)-7-methoxy-1-methyl-1H-benzo[d]imidazol-2-yl)-1-(cyclopropylmethyl)-1H-pyrrolo[2,3-b]pyridin-6-yl)ethyl)-2-methyl-2-phenylpropanamide]
481 nM	COc1cc(C(=O)N2C[C@H](N)CCN2C)cc2nc(-c3cc4ccc([C@@H](C)NC(=O)C5(c6ccccc6)CC5)nc4n3CC3CC3)n(C)c12 [Example 160, N-((R)-1-(2-(5-((R)-5-amino-2-methylhexahydropyridazine-1-carbonyl)-7-methoxy-1-methyl-1H-benzo[d]imidazol-2-yl)-1-(cyclopropylmethyl)-1H-pyrrolo[2,3-b]pyridin-6-yl)ethyl)-1-phenylcyclopropane-1-carboxamide]
